# In PMC9161444, “In-Membrane Nanostructuring of Cationic Amphiphiles Affects Their Antimicrobial Efficacy and Cytotoxicity: A Comparison Study between a De Novo Antimicrobial Lipopeptide and Traditional Biocides” (Langmuir, 2022):
# Residues, ends and D or L forms follow the SMILES beside them. No end group written: not given here. *: point of attachment. Myristoyl = CCCCCCCCCCCCCC(=O)*
# Experiments:
# [1] = previous findings by Lu et al.; cited from earlier work
# Excerpt: From the best fitted surface tension parameters (listed in Table S2), the area per molecule (APM) could be calculated from eq 4 for each amphiphile at its respective CAC. […] This is in line with the previous findings by Lu et al., which stated that APMs of C10TAB, C12TAB, C14TAB, C16TAB, and C18TAB adsorbed on the surface of water were 55 ± 3, 50 ± 2, 48 ± 3, 43 ± 3, and 43 ± 3 Å^2, respectively.[29]−[33] Each lipopeptide molecule occupied around 79 ± 10 Å^2 at ...
# E. coli (ATCC 25922) = format: cell-based, Escherichia coli; conditions: ATCC 25922, 24 h
# Description: (§1) E. coli (ATCC 25922), S. aureus (ATCC 6538), and C. albicans SC5314 (ATCC MYA-2876) were purchased from the American Type Culture Collection (ATCC). The two bacterial strains, E. coli and S. aureus, were cultured in Mueller Hinton broth at 37 °C; while the yeast strain, C. albicans, was grown in RPMI 1640 medium at 30 °C. The microdilution method was employed to determine MICs of the amphiphiles against the microorganism strains listed above.[21] Solutions of lipopeptides and biocides were half-diluted serially in 96-well plates using PBS buffer containing 137 mM NaCl, 2.7 mM KCl, 8.1 mM Na2HPO4, and 1.9 mM KH2PO4 for E. coli and S. aureus and using RPMI 1640 for C. albicans. Overnight incubations of the strains, in each respective growth medium, were then inoculated into each well, giving final concentrations of 10^6 CFU/mL for E. coli and S. aureus and 10^5 CFU/mL for C. albicans. Culture media without microorganisms and amphiphiles were employed as positive controls, while fresh microorganism cultures without amphiphiles were used as negative controls. Each plate has both positive controls and negative controls. The plates were then incubated at an appropriate temperature (stated above) for 24 h for the bacterial strains and 48 h for the yeast strain. MICs of each sample were first determined by eye. A more quantitative analysis was carried out by measuring optical densities at 600 nm (OD600) of each well using a Sunrise absorbance microplate reader (Tecan Group Ltd.). Inhibitory ratios (IRs) of each sample at a given concentration against a specific strain, denoted as IRi, were calculated by IRi = (OD600,negative control – OD600,i)/(OD600,negative control – OD600,positive control) × 100%. All experiments were repeated at least three times with each group containing three replicates. To better analyze concentration–IR relationships, sigmoidal function fittings were employed to generate the best fitted dose response curve for each situation.
# S. aureus (ATCC 6538) = format: cell-based, Staphylococcus aureus; conditions: ATCC 6538, 24 h
# Description: as §1
# [2] = test system: C. albicans SC5314 (ATCC MYA-2876); format: cell-based, Candida albicans; conditions: SC5314, 48 h
# Description: as §1
# [3] = test system: Human dermal fibroblasts cells (adult, HDFa cells); format: cell-based; conditions: 24 h
# Description: (§2) Human dermal fibroblasts cells (adult, HDFa cells) and NIH 3T3 fibroblasts cells (3T3 cells, ATCC-1658) were cultured at 37 °C in Dulbecco’s modified Eagle medium (ATCC30-2002, added with 10% heat-inactivated fetal bovine serum) with a continuous supply of CO2 at a 5% level. MTT assays were carried out to examine in vitro cytotoxicity of the amphiphiles.[22] Cells were first inoculated in flat-bottom 96-well plates, rendering 8 × 10^3 cells in 100 μL of medium for each well, and were incubated for 24 h. The cells were mixed with 100 μL of a solution of an amphiphile with 2 times the selected concentrations. Cells were then exposed to the solutions of each amphiphile for 24 h, after which 10 μL of 5 mg/mL MTT solution was added into each well, and the reaction was allowed for 2 h. 200 μL of dimethyl sulfoxide was then added to each well to dissolve the transformed MTT formazan. Light absorbance of the samples was measured using a Thermo Scientific Varioskan LUX at 570 nm. Cell samples 100% viable and 100% dead were employed as the positive control and negative control, respectively. Dose response curves were obtained by applying sigmoidal function fittings to obtain 50% effective concentrations (EC50).
# [4] = test system: NIH 3T3 fibroblasts cells (3T3 cells, ATCC-1658); format: cell-based; conditions: 24 h
# Description: as §2
# hRBCs = format: cell-based, human
# Description: hRBCs were purchased from Rockland Immunochemical Inc. Hemolytic assays were performed in 96-well plates in an environment of PBS, as previously described.[13],[23] Amphiphiles were half diluted serially at first, resulting in 100 μL of solution in each well, and mixed subsequently with 100 μL of 4% hRBC suspension. Wells filled by PBS mixed with hRBC were employed as positive controls, while hRBCs with added 0.1% Triton X-100 were negative controls. After incubating at 37 °C for 1 h, the plates were centrifuged at 1000 times gravity for 5 min. The supernatants in each well, which contained the released hemoglobin, were transferred to another plate, and their optical density at 450 nm (OD450) was measured using an absorbance microplate reader. The percentage of hemolysis H for each sample at a certain concentration c was obtained by Hc = (OD450,c – OD450,positive control)/(OD450,negative control – OD450,positive control) × 100%. Figures for percentage leakage against concentration for each sample were plotted to determine the approximate range of 50% hemolysis, and the relevant concentration was the half maximal effective concentration (EC50) of the sample. Each experiment was repeated at least three times with each containing three replicates. The dose–response curves were again obtained by applying sigmoidal functional fits to obtain the EC50 values.
# [5] = Analytical RP-HPLC retention time as measure of hydrophobicity; format: physicochemical; conditions: gradient of eluents
# Description: Lipopeptide C14KKGGII was synthesized in the form of acyl chain hydrogenated h-C14KKGGII and acyl chain deuterated d-C14KKGGII. The lipopeptide samples were prepared using a Liberty Blue automated microwave peptide synthesizer, where the standard Fmoc solid-phase strategy was followed. Dimethylformamide (DMF) was used as the solvent during the whole process. Rink-amide resin was employed as a loading anchor to synthesize C-terminal amidated lipopeptides and was swelled for 5 min in DMF before synthesis. After the removal of Fmoc groups on resins, amino acids (Fmoc-Gly-OH, Fmoc-Ile-OH, and Fmoc-Lys-OH in this study) were coupled to the solid phase in succession from the C-terminal to the N-terminal, assisted by the addition of ethyl 2-cyano-2-(hydroxyimino)acetate (OXYMA) and N,N′-diisopropylcarbodiimide (DIC) at 90 °C for 4 min. Fmoc protecting groups on amino acids were removed before further linking using 20% piperidine in DMF. Hydrogenated or deuterated myristic acid was added onto the chain in the last step using the same method. A cleavage mixture of trifluoroacetic acid (TFA), water, and tri-isopropylsilane (TIS) (94/4/2, v/v/v) was employed for the reaction with lipopeptide-loaded resins for 3 h at ambient temperature, removing the side chain protecting groups on the amino acids and releasing lipopeptides from the resin beads. […]
compound,measurement,setting,value
CCCCCCCCCC[N+](C)(C)C.[Br-] [C10TAB],APM adsorbed on the surface of water,[1],55 ± 3 Å^2
"CCCCCCCCCCCCCC(=O)N[C@@H](CCCCN)C(=O)N[C@@H](CCCCN)C(=O)NCC(=O)NCC(=O)N[C@H](C(=O)N[C@H](C(N)=O)[C@@H](C)CC)[C@@H](C)CC [C14KKGGII, CH3(CH2)12CO-Lys-Lys-Gly-Gly-Ile-Ile-NH2] (Myristoyl-KKGGII-NH2)","MIC, E. coli",E. coli (ATCC 25922),16 ± 6 µM
same,"MIC, S. aureus",S. aureus (ATCC 6538),9 ± 3 µM
same,"MIC, C. albicans",[2],12 ± 2 µM
same,EC50,[3],110 ± 30 µM
same,EC50,[4],66 ± 6 µM
same,concentration at which hemolysis starts,hRBCs,16 µM
same,EC50,hRBCs; 1 h,180 ± 30 µM
CCCCCCCCCCCCCCCC[N+](C)(C)C.[Br-] [C16TAB],APM adsorbed on the surface of water,[1],43 ± 3 Å^2
CCCCCCCCCCCCCCCCCC[N+](C)(C)C.[Br-] [C18TAB],APM adsorbed on the surface of water,[1],43 ± 3 Å^2
"CD3(CD2)12CO-KKGGII-NH2 [dC14KKGGII, acyl chain deuterated C14KKGGII]",RP-HPLC retention time (comparison of hydrophobicity),[5],25.6 min
"KKGGII-NH2 [KKGGII, KKGGII-NH2]",RP-HPLC retention time (comparison of hydrophobicity),[5],15.4 min
